# Experimental data from a melting point compilation (Tetko et al.; mined from patent text by program, amines drawn as free bases though some values may be those of a salt).
row,SMILES,melting point [°C]
1,COc1ccccc1N1CCN(C(=O)[C@@H](Cc2cccnc2)NC(=O)OC(C)(C)C)CC1,142
2,COc1ccc([C@@H]2Cc3c(cccc3C(F)(F)F)N(CC3=NCCN3C(=O)OC(C)(C)C)C(=O)[C@@H]2OC(C)=O)cc1,105 to 108
3,CCOP(=O)(OCC)c1ccc(CNC(=O)C2=Cc3cc(C4CCCCC4)ccc3CC2)cc1,169 to 170
4,C#CCN1CC(=O)NC1=O,124 to 125
5,N#Cc1ccc(COc2ccc(-c3ccc(C4Cc5ccccc5C(c5c(O)c6ccccc6oc5=O)C4)cc3)cc2)cc1 (stereo unspecified),127
6,CC12C=CC(=O)C=C1CCC1C3CC4OCOC4(C(=O)CO)C3(C)CC(O)C12F (stereo unspecified),262
7,CCOC(=O)C(=CNc1ccc(F)c(SCC)n1)C(=O)OCC,77.5 to 78.5
8,NS(=O)(=O)c1ccc(-c2cccc(-c3nc(-c4ccc(F)c(F)c4)cc(C(F)(F)F)n3)c2)s1,238
9,CNC(=O)c1c(O)c(=O)cc(C)n1C,> 250
10,OC(CCCl)COc1ccccc1 (stereo unspecified),52 to 54
11,O=C(C#Cc1ccc(Cl)cc1)Nc1ccc2c(ccn2CCN2CCCC2)c1,127 to 129
12,COc1ccc(S(=O)(=O)n2c(=O)n(-c3ccccc3)c3cc(Cl)ccc32)cc1OC,154
13,CC(C)NS(=O)(=O)c1ccc(N)c(C(=O)N2CCN(C)CC2)c1,118 to 122
14,Brc1cc(Br)c(-c2ccccc2)nn1,145 to 146
15,CCC(=O)C(O)(Cc1ccc(C)cc1)c1ccc(N2CCOCC2)cc1 (stereo unspecified),160
16,Cc1cc(Nc2cccc(C(F)(F)F)c2)nc(-n2nc(C)cc2C)n1,130 to 134
17,CCOC(=O)c1cn(C2CC2)c2nc(N3C[C@@H](CN(C)C(=O)C(F)(F)F)[C@@H](F)C3)c(F)cc2c1=O (relative stereo),177 to 179
18,COc1cc(C)c(Cl)cc1C(C)=O,83
19,COC(=O)C(C(C)C)N(C)S(=O)(=O)c1ccc(-c2ccc([N+](=O)[O-])cc2)cc1 (stereo unspecified),117 to 118
20,COc1cc([N+](=O)[O-])c2nccc(C)c2c1OCCCc1ccccc1,100 to 102
21,COc1ccc(N2CCN(CC(O)COc3cccc4cc(C(C)=O)oc34)CC2)cc1 (stereo unspecified),173 to 175
22,Fc1ccccc1CN[C@H]1CCCN[C@H]1c1ccccc1 (relative stereo),> 260
23,O=C(Nc1ccc(C(=O)N2CCc3cn[nH]c3-c3sccc32)cc1)c1ccccc1-c1ccccc1,280 to 284
24,O=C(NCC12CC3CC(CC(C3)C1)C2)c1cc(OCCO)ncc1Cl,154 to 155

row,SMILES,melting point [°C]
1,O=C1CC(c2cccc3ccccc23)c2ccc(O)cc2O1 (stereo unspecified),193 to 196
2,COc1cc(COc2cc(C#N)n(-c3ccccc3)n2)ccc1OCc1nc(-c2ccccc2)oc1C,120 to 121
3,CSc1nc(NC(=O)C2([N+](=O)[O-])C=CC=CC2S(N)(=O)=O)nn1C (stereo unspecified),210 to 213
4,O=C1C(Cc2ccccc2)NC(=S)N1c1ccccc1 (stereo unspecified),187 to 189
5,O=C(O)Cc1ccc(N2C(=O)C3CCCCC3C2=O)cc1 (stereo unspecified),219 to 221
6,FC(F)(F)Oc1ccc(-c2cc(-n3ccc(C(F)(F)F)n3)c3ccccc3n2)cc1,108 to 110
7,CN(Cc1ccccc1O)c1nc(N(C)Cc2ccccc2O)nc(N(C)Cc2ccccc2O)n1,199 to 200
8,CC(C)(CCl)C(=O)COc1ccc(-c2ccc(Cl)cc2)cc1,67 to 68
9,CCc1cc(C2(c3cccc(-c4cccnc4F)c3)N=C(N)N3CCCN=C32)cc(CC)n1 (stereo unspecified),174 to 176
10,COc1ccc(S(=O)O)cc1,173 to 174
11,O=c1cnn(-c2cc(Cl)c(Cc3ccc(Cc4ccccc4)cc3)c(Cl)c2)c(=O)[nH]1,164 to 165
12,CC(C)n1cc(I)c2c(Cl)ncnc21,116 to 118
13,Fc1ccc(-c2ccnc(Nc3ccc4c(c3)OCCO4)c2)cc1,134 to 135
14,CCOc1ccc(-n2nc(C(F)(F)F)nc2-c2ccc(S(C)(=O)=O)cc2)cc1,112
15,NC(=O)c1cccc2c1CCCc1ccccc1-2,> 250
16,Cc1cc(F)ccc1-c1ccc(S(=O)(=O)N2c3ccccc3CC2C(=O)NCCOc2ccc(CC(=O)O)cc2)cc1 (stereo unspecified),99 to 105
17,CCCN=CNc1cccc(O)n1,178 to 179
18,COc1cc2c(c3c1OC(C)(C)C3)C(c1ccnc(-n3c(=O)ccc4ccccc43)c1)=NC(C)(C)C2,190 to 191
19,CN1C(=O)C(CC(O)C#N)c2ccccc21 (stereo unspecified),136 to 138
20,CCc1cc(N)c(N)cc1CC,114 to 116
21,CCCc1cc(=O)on1C(=O)c1ccc(Cl)cc1Cl,63 to 65.5
22,CCC(=O)N(C(=O)CC)c1nnc2c3c(c(N4CCCCC4)nn12)CCCC3,128 to 129
23,C=C(C)Sc1oc2cc(OC)ccc2c(=O)c1-c1ccccc1,117 to 118
24,CC(C)=CCOc1ccc(OCC=C(C)C)c(C(=O)NCCc2ccncc2)c1,92.7 to 93.5

row,SMILES,melting point [°C]
1,CCOC(=O)c1cc(=O)c2c(OCC(C)(O)Oc3ccc(Br)cc3)cccc2o1 (stereo unspecified),79 to 80
2,CC(=O)N1CCC(=O)C(C(c2ccccc2)c2ccccc2)C1 (stereo unspecified),133 to 136
3,C#CCOC(=O)c1ccc(SC(C)CCCC(C)C)cc1 (stereo unspecified),130 to 131
4,CCOC(=O)COc1cc(C(=O)Oc2ccc([N+](=O)[O-])cc2)c(O)c2ccccc12,165 to 167
5,COC(=O)c1cccc([N+](=O)[O-])c1CS(=O)(=O)NC(=O)Nc1nc(OC)cc(OC)n1,177 to 181
6,CC(C)C[C@H](NC(=O)OCc1ccccc1)C(=O)N[C@@H](Cc1ccccc1Cl)C(=O)CSCc1ccco1,110
7,CCCCc1nn(-c2ccccc2C(F)(F)F)c(=O)n1Cc1ccc(-c2ccccc2S(=O)(=O)NC(=O)OC(C)(C)C)cc1F,83 to 85
8,COC(=O)CCCCCCCCN1C(=O)C(c2ccccc2)N(c2ccccc2)C1=O (stereo unspecified),69 to 72
9,Cc1ncc2c(n1)-c1ccc(Cl)cc1C(c1ccccc1Cl)=[N+]([O-])C2,215 to 216
10,NC(CCC(=O)O)c1cccs1 (stereo unspecified),148 to 156
11,O=C(O)c1ccc(-c2coc(-c3ccc(C(F)(F)F)cc3)n2)cc1,294 to 295
12,Cn1cc(-c2cncc(OC3SCC(O)C(O)C3O)c2)c(C(F)(F)F)n1 (stereo unspecified),210
13,CC(C)S(=O)(=O)N1C[C@@H](c2c[nH]c3ccccc23)[C@H](c2cn3c4c(cccc24)CCC3)C1,100 to 115
14,Cc1c(-c2ccc(C#N)cc2)n[nH]c1C(=O)O,260
15,Cc1nc(C)c(Cl)c(NCc2nccc(SCCCSc3ncccn3)c2C)n1,158 to 159
16,O=C(O)c1cc2cccc(OCc3ccccc3)c2[nH]1,166 to 168
17,CCOC(=O)c1ncn2c1CN=C(c1ccccc1F)c1cc(Br)ccc1-2,200 to 202
18,CCO[C@@H]1C[C@H](C(=O)Nc2ccc(N3CCOCC3=O)c(C)c2)N(C(=O)Nc2ccc(Cl)cc2)C1,117
19,Cc1cc(C)c(Cc2cnc(NCCCCc3ncc(Br)cc3C)[nH]c2=O)cn1,110 to 112
20,OCC(O)Cc1c(OCc2ccccc2)ccc2ncccc12 (stereo unspecified),160 to 162
21,Oc1ccc(-c2ccc(O)cc2C#Cc2ccccc2)c(C#Cc2ccccc2)c1,187
22,Cc1c(NC(=O)c2ccc(-c3ccc(F)cc3)cc2)ccc2cc(C(C)O)cnc12 (stereo unspecified),189 to 192
23,CC(C)Oc1ccc(CCCCOc2cc(CCC(=O)O)n(C)n2)c(Oc2ncc(C(F)(F)F)cc2Cl)c1,156 to 157
24,CCc1ncnc(Cl)c1I,56 to 57

row,SMILES,melting point [°C]
1,CN1C(=O)CC(c2ccc(N)cc2)C1C(O)c1ccc(-c2ccccc2)s1 (stereo unspecified),221 to 222
2,O=C(O)CN1C(=O)C(=Cc2ccc(OCCc3ccc(F)cc3)c(OCc3ccccc3)c2)SC1=S,221
3,CNC(=S)Nc1ncc(Cl)cc1Cl,105 to 109
4,CCCCCCCCCCCCCCCCCNC(=O)O[C@@H]1CCCO[C@H]1COc1cc(CCCCO)on1 (relative stereo),86 to 87
5,CC(=O)Nc1ccc(OCC(O)CN2CCC(N3CCCNC3=O)CC2)cc1 (stereo unspecified),218 to 221
6,CCCOCCOC(=O)C1=C(C)NC(C)=C([N+](=O)[O-])C1c1cccc([N+](=O)[O-])c1 (stereo unspecified),161
7,O=C1c2ccccc2CCC1n1cncn1 (stereo unspecified),96 to 98
8,Cc1c(C(=O)Nc2ccc(N3CCC(N4CCOCC4)CC3)c(C#N)c2)cnn1-c1cccc(C(F)(F)F)c1,215 to 216
9,CC1(CN2CCN(C(=O)OCc3ccccc3)CC2)Cn2cc([N+](=O)[O-])nc2O1 (stereo unspecified),130 to 132
10,COC(=O)c1ccc(-c2ncccc2S(=O)(=O)Nc2ncc(C)nc2OC)cc1,144 to 146
11,COC(=O)C#CC(=O)c1ccc(F)cc1,62 to 63
12,COCOc1ccc(-c2ncc3ncc(N4CCCCC4=O)cc3n2)cc1,202 to 204
13,NC1=NC(c2ccc(OC(F)(F)F)cc2)(c2ccc(F)c(-c3cncnc3)c2)C(=O)N1C(F)F (stereo unspecified),82 to 94
14,O=C(C=C1OC(=O)c2cccc(Cl)c21)c1ccccc1,148
15,Cc1c(C)c2c(c(C)c1NC(=O)c1ccc(F)cc1)C(c1ccccc1)C(C)(C)O2 (stereo unspecified),156 to 158
16,N#Cc1c(Cl)nc2ccc([N+](=O)[O-])cc2c1Cl,190 to 192
17,CCc1cccc(C)c1CNc1cc(C(=O)N(C)C)cc2c1nc(CO)n2C,138 to 141
18,Cc1cc(-c2cc3c(cc2F)c(=O)c(C(=O)O)cn3C2CC2)cc(CO)n1,270 to 272
19,CC(=O)Nc1ccc(C(=O)O)cc1O,249
20,CC(C)On1c(-c2ccccc2)nc2c(N)nc3ccccc3c21,188 to 191
21,CC(C)(C)C(=O)C(C#N)C(=O)c1ccc(S(C)(=O)=O)cc1Cl (stereo unspecified),144
22,COc1ccc2c(c1OC)CCC1C(=O)NC(=O)C21 (stereo unspecified),217 to 219
23,COc1ccc2c(N)c([N+](=O)[O-])sc2c1,> 250
24,CCC1(O)CC(=O)OCc2c1cc1n(c2=O)Cc2cc3c4c(c(F)cc3nc2-1)OCN(Cc1ccccc1)C4 (stereo unspecified),> 250
